According to ChEMBL document CHEMBL1201862, “PubChem BioAssay data set” (2004):
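Protocol summary: plate cells (96-well), add compound at 5 concentrations, incubate 48 h, interpolate endpoints linearly. At the GI50, growth is halved.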 Calls of active or inactive are those of the source. No stated cut-off is given here; in the data, active = GI50 up to about 1.1 µM and inactive = higher.

Legend:
Assay in all cases: NCI tumour cell line growth inhibition, 48 h
MCF7 = system: MCF7
LOX IMVI = system: LOX IMVI
NCI-H522 = system: NCI-H522
SN12C = system: SN12C
SNB-19 = system: SNB-19
A498 = system: A498
K562 = system: K562
IGROV-1 = system: IGROV-1
SF-268 = system: SF-268
NCI/ADR-RES = system: NCI/ADR-RES
OVCAR-5 = system: OVCAR-5
SK-MEL-2 = system: SK-MEL-2
HT-29 = system: HT-29
UO-31 = system: UO-31
HOP-62 = system: HOP-62
SK-OV-3 = system: SK-OV-3
RPMI-8226 = system: RPMI-8226
KM12 = system: KM12
NCI-H460 = system: NCI-H460
NCI-H226 = system: NCI-H226

## CC1=C2C(=O)c3ccccc3C(=O)[C@H]2C[C@@H](N2CCCC2=O)O1
MCF7
  GI50: 12.9 µM (inactive)
LOX IMVI
  GI50: 20.2 µM (inactive)
NCI-H522
  GI50: 79.8 µM (inactive)
SN12C
  GI50: 53.2 µM (inactive)
SNB-19
  GI50: > 100 µM (inactive)
A498
  GI50: 54.8 µM (inactive)
K562
  GI50: 49.8 µM (inactive)
IGROV-1
  GI50: 80.9 µM (inactive)
SF-268
  GI50: 48.1 µM (inactive)
NCI/ADR-RES
  GI50: 28.4 µM (inactive)
OVCAR-5
  GI50: 19.4 µM (inactive)
SK-MEL-2
  GI50: > 100 µM (inactive)
HT-29
  GI50: 41.6 µM (inactive)
UO-31
  GI50: > 100 µM (inactive)
HOP-62
  GI50: 39.6 µM (inactive)
SK-OV-3
  GI50: > 100 µM (inactive)
RPMI-8226
  GI50: 21.7 µM (inactive)
KM12
  GI50: 77.6 µM (inactive)
NCI-H460
  GI50: 61.1 µM (inactive)

## Nc1nc(N)c2c(n1)CCC(S(=O)(=O)c1ccc3ccccc3c1)C2 (configuration not stated)
MCF7
  GI50: 10.1 µM (inactive)
LOX IMVI
  GI50: 0.706 µM (active)
SN12C
  GI50: 7 µM (inactive)
SNB-19
  GI50: 3.61 µM (inactive)
A498
  GI50: 24.9 µM (inactive)
SF-268
  GI50: 11 µM (inactive)
NCI/ADR-RES
  GI50: 43.8 µM (inactive)
OVCAR-5
  GI50: 87.7 µM (inactive)
NCI-H226
  GI50: 39.3 µM (inactive)
HT-29
  GI50: 1.26 µM (inactive)
UO-31
  GI50: 5.45 µM (inactive)
HOP-62
  GI50: 9.51 µM (inactive)
SK-OV-3
  GI50: 33.3 µM (inactive)
RPMI-8226
  GI50: 12.5 µM (inactive)
KM12
  GI50: 6.08 µM (inactive)
NCI-H460
  GI50: 0.891 µM (active)

## COc1cc(C(N)=O)cc(NC(=O)/C=C/c2ccccc2)c1OC
MCF7
  GI50: > 100 µM (inactive)
LOX IMVI
  GI50: > 100 µM (inactive)
NCI-H522
  GI50: 64.9 µM (inactive)
SN12C
  GI50: > 100 µM (inactive)
SNB-19
  GI50: 27.7 µM (inactive)
A498
  GI50: > 100 µM (inactive)
K562
  GI50: > 100 µM (inactive)
IGROV-1
  GI50: > 100 µM (inactive)
SF-268
  GI50: 64.3 µM (inactive)
NCI/ADR-RES
  GI50: > 100 µM (inactive)
OVCAR-5
  GI50: > 100 µM (inactive)
SK-MEL-2
  GI50: > 100 µM (inactive)
HT-29
  GI50: > 100 µM (inactive)
UO-31
  GI50: > 100 µM (inactive)
HOP-62
  GI50: > 100 µM (inactive)
SK-OV-3
  GI50: 49.4 µM (inactive)
RPMI-8226
  GI50: > 100 µM (inactive)
KM12
  GI50: > 100 µM (inactive)
NCI-H460
  GI50: > 100 µM (inactive)

## O=c1cc2oc3ccc4ccccc4c3cc-2c(=O)[nH]1
MCF7
  GI50: 19.1 µM (inactive)
LOX IMVI
  GI50: 7.71 µM (inactive)
NCI-H522
  GI50: 9.12 µM (inactive)
SNB-19
  GI50: 14 µM (inactive)
A498
  GI50: 16.1 µM (inactive)
K562
  GI50: 19.8 µM (inactive)
IGROV-1
  GI50: 14.2 µM (inactive)
SF-268
  GI50: 12.7 µM (inactive)
NCI/ADR-RES
  GI50: 17.5 µM (inactive)
OVCAR-5
  GI50: 17.6 µM (inactive)
SK-MEL-2
  GI50: 17.3 µM (inactive)
HT-29
  GI50: 16 µM (inactive)
UO-31
  GI50: 11 µM (inactive)
HOP-62
  GI50: 10.8 µM (inactive)
SK-OV-3
  GI50: 20.3 µM (inactive)
RPMI-8226
  GI50: 2.96 µM (inactive)
KM12
  GI50: 20 µM (inactive)
NCI-H460
  GI50: 22.9 µM (inactive)
